Laboratory results as given in patent US9469650B2, “Melampomagnolide B derivatives” (BOARD OF TRUSTEES OF THE UNIVERSITY OF ARKANSAS, priority 2013, dated 2016).

Columns and labels:
[1] = system: HL-60(TB); test: cells; details: Homo sapiens; for GI50: HL-60; for CC50: HL-60, read-out: LC50; for IC (TGI): HL-60, read-out: TGI
[2] = system: AML 052308 cells
From the text: Derivatives were screened for antileukemic activity against AML cells in culture (See FIGS. 1-7).

[3] = system: panel of 60 human tumor cell lines; test: panel of 60 human tumor cell lines, whole panel or sub-panel (single concentration screen, summaries); assay type: cell-based; details: single concentration of 10^−5 M, read-out: growth inhibition in at least eight human cancer cell lines from the panel
[4] = system: MALME-3M; test: panel of 60 human tumor cell lines, growth inhibition (Melanoma)
[5] = system: RPMI-8226; test: panel of 60 human tumor cell lines, growth inhibition (Leukemia)

| SMILES | GI50 [1] | CC50 [1] | IC (TGI) [1] | cytotoxicity compared to MMB [2] | inhibition at 10 µM [3] | further results |
| --- | --- | --- | --- | --- | --- | --- |
| C=C1C(=O)O[C@H]2[C@H]1CC/C(COC(=O)OCCCN1CCCCC1)=C\CC[C@@]1(C)O[C@@H]21 [JVM 2-26] | 1.88 µM | 98.7 µM | 7.53 µM | more potent than MMB | > 60% | fold more cytotoxic than MMB [2]: 3 fold |
| C=C1C(=O)O[C@H]2[C@H]1CC/C(COC(=O)NCCCCCCO)=C\CC[C@@]1(C)O[C@@H]21 [JVM 2-31] | 3.64 µM | > 100 µM | 14.2 µM |  | > 60% |  |
| C=C1C(=O)O[C@H]2[C@H]1CC/C(COC(=O)OCCN(C)C)=C\CC[C@@]1(C)O[C@@H]21 [JVM 2-35] | 1.77 µM | 87 µM | 6.4 µM |  | > 60% |  |
| C=C1C(=O)O[C@H]2[C@H]1CC/C(COC(=O)OC)=C\CC[C@@]1(C)O[C@@H]21 [JVM 2-40] | 1.69 µM | 76.3 µM | 7.15 µM |  | > 60% |  |
| C=C1C(=O)O[C@H]2[C@H]1CC/C(COC(=O)NCCN1CCOCC1)=C\CC[C@@]1(C)O[C@@H]21 [JVM 57, ((1aR,7aS,10aS,10bS,E)-1a-methyl-8-methylene-9-oxo-1a,2,3,6,7,7a,8,9,10a,10b-decahydrooxireno[2′,3′:9,10]-cyclodeca[1,2-b]furan-5-yl)-methyl(2-morpholinoethyl)carbamate] | 3.59 µM | 85.1 µM | 16.1 µM | less active than MMB | > 60% | GI50 ([4]; Homo sapiens, Malme-3M): 6.12 µM; CC50 ([4]; Homo sapiens, Malme-3M, read-out: LC50): 63.2 µM; TGI ([4]; MALME-3M): 2.19E−5; Percent Growth ([4]; MALME-3M, Log10 Concentration −4.0): −72%; Percent Growth ([4]; MALME-3M, Log10 Concentration −5.0): 37%; Percent Growth ([4]; MALME-3M, Log10 Concentration −6.0): 97%; Percent Growth ([4]; MALME-3M, Log10 Concentration −7.0): 91%; Percent Growth ([4]; MALME-3M, Log10 Concentration −8.0): 100%; GI50 ([5]; Homo sapiens, RPMI-8226): 5.72 µM; CC50 ([5]; Homo sapiens, RPMI-8226, read-out: LC50): > 100 µM; TGI ([5]; RPMI-8226): 2.63E−5; Percent Growth ([5]; RPMI-8226, Log10 Concentration −4.0): −47%; Percent Growth ([5]; RPMI-8226, Log10 Concentration −5.0): 34%; Percent Growth ([5]; RPMI-8226, Log10 Concentration −6.0): 99%; Percent Growth ([5]; RPMI-8226, Log10 Concentration −7.0): 97%; Percent Growth ([5]; RPMI-8226, Log10 Concentration −8.0): 100% |
